Target: F508delCFTR (Homo sapiens, UniProt P13569, DEL508-508)
Assay: Cell Surface Expression-Horse Radish Peroxidase (CSE-HRP) assay
Assay type: cell-based
Set-up: expressed in transfected cells; host or cells: CFBE41o- human lung derived epithelial cell line, doxycycline-inducible
Conditions: CFBE4lo-F508delCFTR-HRP cells; for EC50: 18-24 hours at 33° C., 8-point curve, highest concentration 20 μM, luminescence readout; for Emax: maximum % activity at any tested concentration, normalized to on-plate positive control (3 μM Example 1)
Text: Cell Surface Expression-Horse Radish Peroxidase (CSE-HRP) Assay:
A cellular assay for measuring the F508delCFTR cell surface expression after correction with test compounds was developed in human lung derived epithelial cell line (CFBE4lo-) (Veit G et al, (2012) Mol Biol Cell. 23(21): 4188-4202). This was achieved by expressing the F508delCFTR mutation along with a horseradish peroxidase (HRP) in the fourth exofacial loop and then measuring the HRP activity using luminescence readout from these cells, CFBE4lo-F508delCFTR-HRP, that were incubated overnight with the test corrector compounds. Briefly, for this primary assay, the CFBE4lo-F508delCFTR-HRP cells were plated in 384-well plates (Greiner Bio-one; Cat 781080) at 4,000 cells/well along with 0.5 μg/mL doxycycline to induce the F508delCFTR-HRP expression and further incubated at 37° C., 5% CO2 for 72 hours. The test compounds were then added at the required concentrations and further incubated for 18-24 hours at 33° C. The highest concentration tested was 20 μM with an 8-point concentration response curve using a 3-fold dilution. Three replicate plates were run to determine one EC50. All plates contained negative controls (dimethyl sulfoxide, DMSO) and positive controls (3 μM of 3-[(2R,4R)-4-({[1-(2,2-difluoro-1,3-benzodioxol-5-yl)cyclopropyl]carbonyl}amino)-7-methoxy-3,4-dihydro-2H-chromen-2-yl]benzoic acid) as well as on-plate concentration response of the positive control. Post incubation, the plates were washed 5× times with Dulbecco's phosphate buffered saline (DPBS), followed by the addition of the HRP substrate, luminol (50 μL), and measuring the HRP activity using luminescence readout on EnVision® Multilabel Plate Reader (Perkin Elmer; product number 2104-0010). The raw counts from the experiment are analyzed using Accelrys® Assay Explorer v3.3.
Z′ greater than 0.5 was used as passing quality control criteria for the plates.
The Z′ is defined as: 1−[3*SDPositive Control+3*SDNegative Control/Absolute(MeanPositive Control−MeanNegative Control)] wherein “SD” is standard deviation.
The % activity measured at each of the 8 test concentrations of the test compound was normalized to the on-plate positive control using the following formula: % activity=[(test compound response−DMSO response)/(positive control response−DMSO response)]*100
The maximum % activity achieved for the test compound at any tested concentration is presented in Table 1 along with the EC50 calculated using the following general sigmoidal curve with variable Hill slope equation (described as Model 42 in the Accelrys® Assay Explorer v3.3 software): y=(a−d)/(1+(x/c)^b)+d
General sigmoidal curve with concentration, response, top, bottom, EC50 and Hill slope.
This model describes a sigmoidal curve with an adjustable baseline, a. The equation can be used to fit curves where response is either increasing or decreasing with respect to the independent variable, “x”.
“x” is a concentration of drug under test.
“a” is the maximum response, and “d” is the minimum response
“c” is the inflection point (EC50) for the curve. That is, “y” is halfway between the lower and upper asymptotes when x=c.
“b” is the slope-factor or Hill coefficient. The sign of b is positive when the response increases with increasing dose and is negative when the response decreases with increasing dose (inhibition).

Chain of F508delCFTR (P13569 with tags, fused parts or gaps DEL508-508): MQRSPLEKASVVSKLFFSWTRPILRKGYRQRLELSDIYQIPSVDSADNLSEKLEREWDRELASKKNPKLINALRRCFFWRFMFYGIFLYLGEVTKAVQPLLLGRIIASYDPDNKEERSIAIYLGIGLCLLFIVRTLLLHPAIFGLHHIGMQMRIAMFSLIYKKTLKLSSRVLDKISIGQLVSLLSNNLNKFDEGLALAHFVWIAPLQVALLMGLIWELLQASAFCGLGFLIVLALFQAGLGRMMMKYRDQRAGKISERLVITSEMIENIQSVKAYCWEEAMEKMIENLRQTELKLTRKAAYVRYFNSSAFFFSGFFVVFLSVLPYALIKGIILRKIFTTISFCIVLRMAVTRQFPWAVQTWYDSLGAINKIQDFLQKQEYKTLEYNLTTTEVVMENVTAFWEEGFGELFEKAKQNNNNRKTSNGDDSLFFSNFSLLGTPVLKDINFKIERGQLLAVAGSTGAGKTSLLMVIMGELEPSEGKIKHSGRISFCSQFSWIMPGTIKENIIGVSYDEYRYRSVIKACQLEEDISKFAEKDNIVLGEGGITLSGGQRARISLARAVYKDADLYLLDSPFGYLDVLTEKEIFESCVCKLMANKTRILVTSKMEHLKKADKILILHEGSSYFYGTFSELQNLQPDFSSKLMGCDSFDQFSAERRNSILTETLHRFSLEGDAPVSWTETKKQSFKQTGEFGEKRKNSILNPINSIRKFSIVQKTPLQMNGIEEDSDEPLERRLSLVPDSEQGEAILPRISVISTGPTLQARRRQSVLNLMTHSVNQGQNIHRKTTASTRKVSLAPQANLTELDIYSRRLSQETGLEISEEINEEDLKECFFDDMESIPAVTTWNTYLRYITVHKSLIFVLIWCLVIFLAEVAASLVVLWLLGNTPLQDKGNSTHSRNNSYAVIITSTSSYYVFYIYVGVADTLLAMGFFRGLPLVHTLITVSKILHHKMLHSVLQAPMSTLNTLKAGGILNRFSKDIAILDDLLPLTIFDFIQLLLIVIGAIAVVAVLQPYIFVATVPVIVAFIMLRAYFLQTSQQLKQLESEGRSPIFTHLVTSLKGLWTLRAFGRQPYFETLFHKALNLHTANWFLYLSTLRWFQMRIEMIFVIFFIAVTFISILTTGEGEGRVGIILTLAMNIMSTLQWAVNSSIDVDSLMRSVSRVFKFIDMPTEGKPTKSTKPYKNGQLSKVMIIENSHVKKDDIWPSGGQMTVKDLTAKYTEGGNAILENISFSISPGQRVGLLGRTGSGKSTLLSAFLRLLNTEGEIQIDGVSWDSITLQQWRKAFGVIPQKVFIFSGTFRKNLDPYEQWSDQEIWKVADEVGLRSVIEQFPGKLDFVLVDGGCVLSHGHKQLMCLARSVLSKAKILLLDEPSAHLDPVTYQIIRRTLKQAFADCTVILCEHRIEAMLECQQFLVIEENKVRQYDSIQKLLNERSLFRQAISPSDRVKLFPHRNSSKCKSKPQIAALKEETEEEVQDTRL

| SMILES | EC50 [µM] | Emax [%] |
| --- | --- | --- |
| COC(=O)c1cccc([C@H]2C[C@H](NC(=O)C3(c4ccc5c(c4)OC(F)(F)O5)CC3)c3ccc(OC)cc3O2)c1 [Example 5, methyl 3-[(2R,4S)-4-({[1-(2,2-difluoro-1,3-benzodioxol-5-yl)cyclopropyl]carbonyl}amino)-7-methoxy-3,4-dihydro-2H-chromen-2-yl]benzoate] | 2.45 | 92 |
| COc1ccc2c(c1)O[C@@H](c1cccc(C(=O)O)c1)C[C@@H]2NC(=O)C1(c2ccc3c(c2)OC(F)(F)O3)CC1 [Example 2, 3-[(2R,4S)-4-({[1-(2,2-difluoro-1,3-benzodioxol-5-yl)cyclopropyl]carbonyl}amino)-7-methoxy-3,4-dihydro-2H-chromen-2-yl]benzoic acid] | 2.71 | 122 |
| COC(=O)c1ccc([C@@H]2C[C@H](NC(=O)C3(c4ccc5c(c4)OC(F)(F)O5)CC3)c3ccc(OC)cc3O2)nc1 (stereo in doubt) [Example 161, methyl rel-6-[(2S,4S)-4-({[1-(2,2-difluoro-1,3-benzodioxol-5-yl)cyclopropyl]carbonyl}amino)-7-methoxy-3,4-dihydro-2H-chromen-2-yl]pyridine-3-carboxylate] | 2.26 | 82 |
| COc1ccc2c(n1)O[C@@H](c1cccc(C(=O)O)c1)C[C@@H]2NC(=O)C1(c2ccc3c(c2)OC(F)(F)O3)CC1 (racemic) [Example 29, rac-3-[(2R,4S)-4-({[1-(2,2-difluoro-1,3-benzodioxol-5-yl)cyclopropyl]carbonyl}amino)-7-methoxy-3,4-dihydro-2H-pyrano[2,3-b]pyridin-2-yl]benzoic acid] | 5.71 | 106 |
| O=C(O)c1ccc([C@H]2C[C@@H](NC(=O)C3(c4ccc5c(c4)OC(F)(F)O5)CC3)c3ccc(O)cc3O2)cc1 [Example 128, 4-[(2R,4R)-4-({[1-(2,2-difluoro-1,3-benzodioxol-5-yl)cyclopropyl]carbonyl}amino)-7-hydroxy-3,4-dihydro-2H-chromen-2-yl]benzoic acid] | 4.57 | 66 |
| Cc1ccc2c(c1)[C@@H](NC(=O)C1(c3ccc4c(c3)OC(F)(F)O4)CC1)C[C@H](c1cccc(C(=O)O)c1)O2 [Example 13, 3-[(2R,4S)-4-({[1-(2,2-difluoro-1,3-benzodioxol-5-yl)cyclopropyl]carbonyl}amino)-6-methyl-3,4-dihydro-2H-chromen-2-yl]benzoic acid] | 4.57 | 118 |
| COc1ccc2c(c1)O[C@@H](C(=O)NC(CO)c1ccccc1)C[C@H]2NC(=O)C1(c2ccc3c(c2)OC(F)(F)O3)CC1 (mixture of isomers) [Example 171, rac-(2R,4R)-4-({[1-(2,2-difluoro-1,3-benzodioxol-5-yl)cyclopropyl]carbonyl}amino)-N-(2-hydroxy-1-phenylethyl)-7-methoxy-3,4-dihydro-2H-chromene-2-carboxamide] | 2.29 | 40 |
| COc1ccc2c(c1)O[C@@H](C(=O)NC1(C(F)(F)F)COC1)C[C@@H]2NC(=O)C1(c2ccc3c(c2)OC(F)(F)O3)CC1 (racemic) [Example 192, rac-(2R,4S)-4-({[1-(2,2-difluoro-1,3-benzodioxol-5-yl)cyclopropyl]carbonyl}amino)-7-methoxy-N-[3-(trifluoromethyl)oxetan-3-yl]-3,4-dihydro-2H-chromene-2-carboxamide] | 4.4 | 29 |
| COC(=O)c1cccc([C@H]2C[C@@H](NC(=O)C3(c4ccc5c(c4)OC(F)(F)O5)CC3)c3cccnc3O2)c1 (racemic) [Example 33, rac-methyl 3-[(2R,4R)-4-({[1-(2,2-difluoro-1,3-benzodioxol-5-yl)cyclopropyl]carbonyl}amino)-3,4-dihydro-2H-pyrano[2,3-b]pyridin-2-yl]benzoate] | 7.65 | 38 |
| COC(=O)c1ccc([C@H]2C[C@@H](NC(=O)C3(c4ccc5c(c4)OC(F)(F)O5)CC3)c3ccccc3O2)cc1 [Example 120, methyl 4-[(2R,4R)-4-({[1-(2,2-difluoro-1,3-benzodioxol-5-yl)cyclopropyl]carbonyl}amino)-3,4-dihydro-2H-chromen-2-yl]benzoate] | 0.5 | 110 |
| CC(C)(C)OC(=O)N1CCC2(CC1)CC(NC(=O)C1(c3ccc4c(c3)OC(F)(F)O4)CC1)c1ccc(F)cc1O2 (centres unmarked) [Example 92, tert-butyl 4-({[1-(2,2-difluoro-1,3-benzodioxol-5-yl)cyclopropyl]carbonyl}amino)-7-fluoro-3,4-dihydro-1′H-spiro[chromene-2,4′-piperidine]-1′-carboxylate] | 2.57 | 71 |
| O=C(NC1CC(c2ccccc2)Oc2ccccc21)C1(c2ccc3c(c2)OC(F)(F)O3)CC1 (centres unmarked) [Example 67, 1-(2,2-difluoro-1,3-benzodioxol-5-yl)-N-(2-phenyl-3,4-dihydro-2H-chromen-4-yl)cyclopropanecarboxamide] | 5.89 | 128 |
| COC(=O)c1cccc([C@H]2C[C@H](NC(=O)C3(c4ccc5c(c4)OC(F)(F)O5)CC3)c3cccnc3O2)c1 (racemic) [Example 34, rac-methyl 3-[(2R,4S)-4-({[1-(2,2-difluoro-1,3-benzodioxol-5-yl)cyclopropyl]carbonyl}amino)-3,4-dihydro-2H-pyrano[2,3-b]pyridin-2-yl]benzoate] | ≥ 20 | 15 |
| COc1cccc([C@H]2C[C@@H](NC(=O)C3(c4ccc5c(c4)OC(F)(F)O5)CC3)c3cc(C(=O)O)ccc3O2)c1 [Example 44, (2R,4R)-4-({[1-(2,2-difluoro-1,3-benzodioxol-5-yl)cyclopropyl]carbonyl}amino)-2-(3-methoxyphenyl)-3,4-dihydro-2H-chromene-6-carboxylic acid] | ≥ 20 | 14 |
| COc1ccc2c(c1)O[C@@H](C(=O)NC(CO)CO)C[C@H]2NC(=O)C1(c2ccc3c(c2)OC(F)(F)O3)CC1 (racemic) [Example 180, rac-(2R,4R)-4-({[1-(2,2-difluoro-1,3-benzodioxol-5-yl)cyclopropyl]carbonyl}amino)-N-(1,3-dihydroxypropan-2-yl)-7-methoxy-3,4-dihydro-2H-chromene-2-carboxamide] | 5.93 | 59 |
| COc1ccc2c(c1)O[C@@H](C1CC1)C[C@H]2NC(=O)C1(c2ccc3c(c2)OC(F)(F)O3)CC1 (racemic) [Example 40, rac-N-[(2R,4R)-2-cyclopropyl-7-methoxy-3,4-dihydro-2H-chromen-4-yl]-1-(2,2-difluoro-1,3-benzodioxol-5-yl)cyclopropanecarboxamide] | 2.68 | 107 |
| COC(=O)c1ccc([C@@H]2C[C@@H](NC(=O)C3(c4ccc5c(c4)OC(F)(F)O5)CC3)c3ccc(OC)cc3O2)nc1 (stereo in doubt) [Example 160, methyl rel-6-[(2S,4R)-4-({[1-(2,2-difluoro-1,3-benzodioxol-5-yl)cyclopropyl]carbonyl}amino)-7-methoxy-3,4-dihydro-2H-chromen-2-yl]pyridine-3-carboxylate] | 0.6 | 104 |
| COc1ccc2c(c1)O[C@@H](C(=O)O)C[C@@H]2NC(=O)C1(c2ccc3c(c2)OC(F)(F)O3)CC1 (racemic) [Example 134, rac-(2R,4S)-4-({[1-(2,2-difluoro-1,3-benzodioxol-5-yl)cyclopropyl]carbonyl}amino)-7-methoxy-3,4-dihydro-2H-chromene-2-carboxylic acid] | > 20 | 4 |
| CCOC(=O)[C@H]1C[C@@H](NC(=O)C2(c3ccc4c(c3)OC(F)(F)O4)CC2)c2ccc(OC)cc2O1 (racemic) [Example 163, ethyl rac-(2R,4R)-4-({[1-(2,2-difluoro-1,3-benzodioxol-5-yl)cyclopropyl]carbonyl}amino)-7-methoxy-3,4-dihydro-2H-chromene-2-carboxylate] | 3.59 | 42 |
